# Test results reported in ChEMBL document CHEMBL4477231, “Design, synthesis and antiproliferative activity studies of novel dithiocarbamate-chalcone derivates” (Bioorg Med Chem Lett, 2016).
# Calls of active or inactive are those of the source. The rule behind the calls is not given here.
# Key:
# SK-N-SH [1] = assay: Cell cycle arrest in human SK-N-SH cells assessed as accumulation at G2/M phase at 5 uM after 48 hrs by propidium iodide staining based flow cytometry (reference value: 18.35 %); format: functional
# GES1 = assay: Cytotoxicity against human GES-1 cells assessed as reduction in cell viability after 72 hrs by MTT assay; format: cell-based; conditions: GES1, 72 h
# SK-N-SH [2] = assay: Induction of apoptosis in human SK-N-SH cells assessed as increase in p53 expression at 2.5 to 5 uM after 48 hrs; format: functional, cell-based
# SK-N-SH [3] = assay: Cell cycle arrest in human SK-N-SH cells assessed as accumulation at G2/M phase at 5 uM after 24 hrs by propidium iodide staining based flow cytometry (reference value: 17 %); format: functional
# SK-N-SH [4] = assay: Induction of apoptosis in human SK-N-SH cells assessed as reduction in procaspase-3 level at 2.5 to 5 uM after 48 hrs; format: functional, cell-based
# SK-N-SH [5] = assay: Cell cycle arrest in human SK-N-SH cells assessed as accumulation at G2/M phase at 2.5 uM after 24 hrs by propidium iodide staining based flow cytometry (reference value: 17 %); format: functional
# SK-N-SH [6] = assay: Cell cycle arrest in human SK-N-SH cells assessed as accumulation at G2/M phase at 2.5 uM after 48 hrs by propidium iodide staining based flow cytometry (reference value: 18.35 %); format: functional
# SK-N-SH [7] = assay: Induction of apoptosis in human SK-N-SH cells assessed as round cells at 5 uM after 24 to 48 hrs by Hoechst 33258 staining based fluorescence microscopy; format: functional, cell-based
# MGC-803 = assay: Cytotoxicity against human MGC803 cells assessed as cell growth inhibition after 72 hrs by MTT assay; format: functional, cell-based; conditions: MGC-803, 72 h
# ECa-109 cell line = assay: Cytotoxicity against human EC109 cells assessed as cell growth inhibition after 72 hrs by MTT assay; format: functional, cell-based; conditions: ECa-109, 72 h
# SK-N-SH [8] = assay: Cytotoxicity against human SK-N-SH cells assessed as cell growth inhibition after 72 hrs by MTT assay; format: functional, cell-based
# SK-N-SH [9] = assay: Cell cycle arrest in human SK-N-SH cells assessed as accumulation at G0/G1 phase at 5 uM after 24 hrs by propidium iodide staining based flow cytometry (reference value: 50.26 %); format: functional
# SK-N-SH [10] = assay: Cell cycle arrest in human SK-N-SH cells assessed as accumulation at S phase at 5 uM after 24 hrs by propidium iodide staining based flow cytometry (reference value: 30.91 %); format: functional
# SK-N-SH [11] = assay: Cell cycle arrest in human SK-N-SH cells assessed as accumulation at G0/G1 phase at 2.5 uM after 24 hrs by propidium iodide staining based flow cytometry (reference value: 50.26 %); format: functional
# SK-N-SH [12] = assay: Cell cycle arrest in human SK-N-SH cells assessed as accumulation at G0/G1 phase at 2.5 uM after 48 hrs by propidium iodide staining based flow cytometry (reference value: 54.35 %); format: functional
# SK-N-SH [13] = assay: Induction of apoptosis in human SK-N-SH cells at 5 uM by Annexin V-FITC/propidium iodide staining based flow cytometry; format: functional, cell-based; conditions: TDE = time-dependent effect
# SK-N-SH [14] = assay: Induction of apoptosis in human SK-N-SH cells at 5 uM after 48 hrs by Annexin V-FITC/propidium iodide staining based flow cytometry relative to control; format: functional
# SK-N-SH [15] = assay: Induction of apoptosis in human SK-N-SH cells assessed as formation of apoptotic bodies at 5 uM after 24 to 48 hrs by Hoechst 33258 staining based fluorescence microscopy; format: functional, cell-based
# SK-N-SH [16] = assay: Cell cycle arrest in human SK-N-SH cells assessed as accumulation at S phase at 5 uM after 48 hrs by propidium iodide staining based flow cytometry (reference value: 27.41 %); format: functional
# SK-N-SH [17] = assay: Cell cycle arrest in human SK-N-SH cells assessed as accumulation at S phase at 2.5 uM after 48 hrs by propidium iodide staining based flow cytometry (reference value: 27.41 %); format: functional
# SK-N-SH [18] = assay: Cell cycle arrest in human SK-N-SH cells assessed as accumulation at S phase at 2.5 uM after 24 hrs by propidium iodide staining based flow cytometry (reference value: 30.91 %); format: functional
# SK-N-SH [19] = assay: Cell cycle arrest in human SK-N-SH cells assessed as accumulation at G0/G1 phase at 5 uM after 48 hrs by propidium iodide staining based flow cytometry (reference value: 54.35 %); format: functional
# SK-N-SH [20] = assay: Induction of apoptosis in human SK-N-SH cells assessed as chromatin shrinkage at 5 uM after 24 to 48 hrs by Hoechst 33258 staining based fluorescence microscopy; format: functional, cell-based
# SK-N-SH [21] = assay: Induction of apoptosis in human SK-N-SH cells at 5 uM after 24 hrs by Annexin V-FITC/propidium iodide staining based flow cytometry relative to control; format: functional
compound,measurement,setting,value
COc1cc(/C=C/C(=O)c2ccc(OCCCSC(=S)N3CCN(C)CC3)cc2)cc(OC)c1OC,Activity,SK-N-SH [1],10.54%
same,IC50,GES1,> 64 µM
same,Activity,SK-N-SH [2],Active
same,Activity,SK-N-SH [3],6.11%
same,Activity,SK-N-SH [4],Active
same,Activity,SK-N-SH [5],18.55%
same,Activity,SK-N-SH [6],13.81%
same,Activity,SK-N-SH [7],Active
same,IC50,MGC-803,7.37 µM
same,IC50,ECa-109 cell line,7.43 µM
same,IC50,SK-N-SH [8],2.03 µM
same,Activity,SK-N-SH [9],68.19%
same,Activity,SK-N-SH [10],25.26%
same,Activity,SK-N-SH [11],50.03%
same,Activity,SK-N-SH [12],59.64%
same,Activity,SK-N-SH [13],Tde
same,Activity,SK-N-SH [14],36.8%
same,Activity,SK-N-SH [15],Active
same,Activity,SK-N-SH [16],14.22%
same,Activity,SK-N-SH [17],26.02%
same,Activity,SK-N-SH [18],31.19%
same,Activity,SK-N-SH [19],74.85%
same,Activity,SK-N-SH [20],Active
same,Activity,SK-N-SH [21],20.6%
O=C(/C=C/c1ccc(Cl)cc1)c1ccc(OCCSC(=S)N2CCCCC2)cc1,IC50,MGC-803,12.8 µM
same,IC50,ECa-109 cell line,26.1 µM
same,IC50,SK-N-SH [8],27.4 µM
O=c1[nH]cc(F)c(=O)[nH]1 [FLUOROURACIL],IC50,MGC-803,7.21 µM
same,IC50,SK-N-SH [8],9.84 µM
O=C(/C=C/c1cccnc1)c1ccc(OCCCSC(=S)N2CCCC2)cc1,IC50,MGC-803,19.5 µM
same,IC50,ECa-109 cell line,29.8 µM
same,IC50,SK-N-SH [8],24.5 µM
O=C(/C=C/c1ccc(Cl)cc1)c1ccc(OCCSC(=S)N2CCCC2)cc1,IC50,MGC-803,47.9 µM
same,IC50,ECa-109 cell line,27.8 µM
same,IC50,SK-N-SH [8],18.3 µM
COc1cc(/C=C/C(=O)c2ccc(OCCCSC(=S)N3CCCC3)cc2)cc(OC)c1OC,IC50,MGC-803,14.5 µM
same,IC50,ECa-109 cell line,11.1 µM
same,IC50,SK-N-SH [8],12.8 µM
CN1CCN(C(=S)SCCCOc2ccc(C(=O)/C=C/c3cc(Cl)cc(Cl)c3)cc2)CC1,IC50,MGC-803,19.4 µM
same,IC50,ECa-109 cell line,12.4 µM
same,IC50,SK-N-SH [8],24.6 µM
COc1cc(/C=C/C(=O)c2ccc(OCCSC(=S)N3CCCCC3)cc2)cc(OC)c1OC,IC50,MGC-803,41.3 µM
same,IC50,ECa-109 cell line,38.9 µM
same,IC50,SK-N-SH [8],48.4 µM
COc1cc(/C=C/C(=O)c2ccc(OCCSC(=S)N3CCN(C)CC3)cc2)cc(OC)c1OC,IC50,GES1,> 64 µM
same,IC50,MGC-803,8.28 µM
same,IC50,ECa-109 cell line,10 µM
same,IC50,SK-N-SH [8],2.46 µM
O=C(/C=C/c1cccs1)c1ccc(OCCSC(=S)N2CCCC2)cc1,IC50,MGC-803,32.4 µM
same,IC50,ECa-109 cell line,18.2 µM
same,IC50,SK-N-SH [8],19.1 µM
CN1CCN(C(=S)SCCCOc2ccc(C(=O)/C=C/c3ccc(Cl)cc3)cc2)CC1,IC50,MGC-803,29.4 µM
same,IC50,ECa-109 cell line,34.2 µM
same,IC50,SK-N-SH [8],31.9 µM
O=C(/C=C/c1ccc(Cl)cc1)c1ccc(OCCCSC(=S)N2CCCC2)cc1,IC50,MGC-803,34.5 µM
same,IC50,ECa-109 cell line,18.6 µM
same,IC50,SK-N-SH [8],19.1 µM
COc1cc(/C=C/C(=O)c2ccc(OCCSC(=S)N3CCCC3)cc2)cc(OC)c1OC,IC50,MGC-803,31.7 µM
same,IC50,ECa-109 cell line,10.7 µM
same,IC50,SK-N-SH [8],12.1 µM
O=C(/C=C/c1cccs1)c1ccc(OCCCSC(=S)N2CCCCC2)cc1,IC50,MGC-803,41.3 µM
same,IC50,ECa-109 cell line,36.4 µM
same,IC50,SK-N-SH [8],38.2 µM
CN1CCN(C(=S)SCCCOc2ccc(C(=O)/C=C/c3cc(F)cc(F)c3)cc2)CC1,IC50,MGC-803,16.3 µM
same,IC50,ECa-109 cell line,14.5 µM
same,IC50,SK-N-SH [8],13.2 µM
O=C(/C=C/c1ccc(Cl)cc1)c1ccc(OCCCSC(=S)N2CCCCC2)cc1,IC50,MGC-803,56.8 µM
same,IC50,ECa-109 cell line,42.6 µM
same,IC50,SK-N-SH [8],32.2 µM
O=C(/C=C/c1ccc(Cl)cc1)c1ccc(OCCSC(=S)N2CCOCC2)cc1,IC50,MGC-803,11.5 µM
same,IC50,ECa-109 cell line,15.4 µM
same,IC50,SK-N-SH [8],11.7 µM
O=C(/C=C/c1cc(F)cc(F)c1)c1ccc(OCCCSC(=S)N2CCCC2)cc1,IC50,MGC-803,28.4 µM
same,IC50,ECa-109 cell line,28.8 µM
same,IC50,SK-N-SH [8],36.1 µM
COc1ccc(/C=C/C(=O)c2ccc(OCCCSC(=S)N3CCN(C)CC3)cc2)cc1,IC50,MGC-803,19.4 µM
same,IC50,ECa-109 cell line,> 100 µM
same,IC50,SK-N-SH [8],29.5 µM
